Calls of active or inactive are those of the source. The rule behind the calls is not given here.

The test system of the data set is CCRIS mutagenicity, Ames/micronucleus/aberration tests. Description: CCRIS mutagenicity studies.
[1] abbreviates: Test System: AMES SALMONELLA TYPHIMURIUM, Strain/Indicator: TA98, Metabolic Activation: NONE, Method: PREINCUBATION
[2] abbreviates: Test System: AMES SALMONELLA TYPHIMURIUM, Strain/Indicator: TA100, Metabolic Activation: NONE, Method: PREINCUBATION
The mark [3] stands for this setting: Test System: AMES SALMONELLA TYPHIMURIUM, Strain/Indicator: TA1535, Metabolic Activation: NONE, Method: PREINCUBATION
Where [4] appears, read: Test System: AMES SALMONELLA TYPHIMURIUM, Strain/Indicator: TA1537, Metabolic Activation: NONE, Method: PREINCUBATION
The mark [5] stands for this setting: Test System: AMES SALMONELLA TYPHIMURIUM, Strain/Indicator: TA100, Metabolic Activation: RAT, LIVER, S-9, PHENOBARBITAL AND 5,6-BENZOFLAVONE, Method: PREINCUBATION
Where [6] appears, read: Test System: AMES SALMONELLA TYPHIMURIUM, Strain/Indicator: TA102, Metabolic Activation: NONE, Method: PREINCUBATION

For the compound `C=C(C)C(=O)OCCCCCCCCCC`, the mutagenic call is, setting by setting: (Test System: AMES SALMONELLA TYPHIMURIUM, Strain/Indicator: TA98, Metabolic Activation: HAMSTER, LIVER, S-9, AROCLOR 1254 (10%), Method: PREINCUBATION) “inactive; negative”; under setting [1], “inactive; negative”; (Test System: AMES SALMONELLA TYPHIMURIUM, Strain/Indicator: TA98, Metabolic Activation: RAT, LIVER, S-9, AROCLOR 1254 (10%), Method: PREINCUBATION) “inactive; negative”; (Test System: AMES SALMONELLA TYPHIMURIUM, Strain/Indicator: TA100, Metabolic Activation: HAMSTER, LIVER, S-9, AROCLOR 1254 (10%), Method: PREINCUBATION) “inactive; negative”; under setting [2], “inactive; negative”; (Test System: AMES SALMONELLA TYPHIMURIUM, Strain/Indicator: TA100, Metabolic Activation: RAT, LIVER, S-9, AROCLOR 1254 (10%), Method: PREINCUBATION) “inactive; negative”. Also, the mutagenic call (Test System: AMES SALMONELLA TYPHIMURIUM, Strain/Indicator: TA1535, Metabolic Activation: HAMSTER, LIVER, S-9, AROCLOR 1254 (10%), Method: PREINCUBATION) is “inactive; negative”; the mutagenic call under setting [3] was “inactive; negative”; the mutagenic call (Test System: AMES SALMONELLA TYPHIMURIUM, Strain/Indicator: TA1535, Metabolic Activation: RAT, LIVER, S-9, AROCLOR 1254 (10%), Method: PREINCUBATION) is “inactive; negative”; the mutagenic call (Test System: AMES SALMONELLA TYPHIMURIUM, Strain/Indicator: TA1537, Metabolic Activation: HAMSTER, LIVER, S-9, AROCLOR 1254 (10%), Method: PREINCUBATION) was “inactive; negative”; the mutagenic call under setting [4] was “inactive; negative”; the mutagenic call (Test System: AMES SALMONELLA TYPHIMURIUM, Strain/Indicator: TA1537, Metabolic Activation: RAT, LIVER, S-9, AROCLOR 1254 (10%), Method: PREINCUBATION) is “inactive; negative”.

In the case of `Fc1cnc2c(ccc3ccccc32)c1`, the mutagenic call under setting [5] is “inactive; negative”.

Take `O=C(NC(=S)NNC(=O)c1cc(O)ccc1O)c1ccccc1`: the mutagenic call (Test System: AMES SALMONELLA TYPHIMURIUM, Strain/Indicator: TA1530, Metabolic Activation: NONE, Method: STANDARD PLATE) was “active; positive”.

Turning to `O=CN(O)c1cccc(Cl)c1`, the mutagenic call reads like this: (Test System: AMES SALMONELLA TYPHIMURIUM, Strain/Indicator: TA98, Metabolic Activation: NONE, Method: STANDARD PLATE) “inactive; negative”; (Test System: AMES SALMONELLA TYPHIMURIUM, Strain/Indicator: TA98, Metabolic Activation: RAT, LIVER, S-9, AROCLOR 1254, Method: STANDARD PLATE) “inactive; negative”; (Test System: AMES SALMONELLA TYPHIMURIUM, Strain/Indicator: TA100, Metabolic Activation: NONE, Method: STANDARD PLATE) “inactive; negative”; (Test System: AMES SALMONELLA TYPHIMURIUM, Strain/Indicator: TA100, Metabolic Activation: RAT, LIVER, S-9, AROCLOR 1254, Method: STANDARD PLATE) “inactive; negative”.

On to `CN(C)CCNC(=O)c1cccc2c(N)c3ccccc3nc12`, for which, where the note is “Test System: AMES SALMONELLA TYPHIMURIUM, Strain/Indicator: TA1537, Metabolic Activation: NONE, Method: STANDARD PLATE”, the mutagenic call was “active; positive”.

`CCc1ccccc1[N+](=O)[O-]`: the mutagenic call under setting [1] was “inactive; negative”; the mutagenic call (Test System: AMES SALMONELLA TYPHIMURIUM, Strain/Indicator: TA98, Metabolic Activation: RAT, LIVER, S-9, KANECHLOR 500, Method: PREINCUBATION) was “inactive; negative”; the mutagenic call under setting [2] is “inactive; negative”; the mutagenic call (Test System: AMES SALMONELLA TYPHIMURIUM, Strain/Indicator: TA100, Metabolic Activation: RAT, LIVER, S-9, KANECHLOR 500, Method: PREINCUBATION) is “inactive; negative”.

Take `CCOC(=O)CC(C)=O`: the mutagenic call by setting is: (Test System: AMES SALMONELLA TYPHIMURIUM, Strain/Indicator: TA97, Metabolic Activation: NONE, Method: PREINCUBATION) “inactive; negative”; (Test System: AMES SALMONELLA TYPHIMURIUM, Strain/Indicator: TA97, Metabolic Activation: RAT, LIVER, S-9, AROCLOR 1254, Method: PREINCUBATION) “inactive; negative”; under setting [1], “inactive; negative”; (Test System: AMES SALMONELLA TYPHIMURIUM, Strain/Indicator: TA98, Metabolic Activation: RAT LIVER S-9, PHENOBARBITAL AND BETA-NAPHTHOFLAVONE, Method: PREINCUBATION) “inactive; negative”; under setting [2], “inactive; negative”; (Test System: AMES SALMONELLA TYPHIMURIUM, Strain/Indicator: TA100, Metabolic Activation: RAT LIVER S-9, PHENOBARBITAL AND BETA-NAPHTHOFLAVONE, Method: PREINCUBATION) “inactive; negative”. Also, the mutagenic call is “inactive; negative” under setting [6]; “inactive; negative” (Test System: AMES SALMONELLA TYPHIMURIUM, Strain/Indicator: TA102, Metabolic Activation: RAT, LIVER, S-9, AROCLOR 1254, Method: PREINCUBATION); “inactive; negative” under setting [3]; “inactive; negative” (Test System: AMES SALMONELLA TYPHIMURIUM, Strain/Indicator: TA1535, Metabolic Activation: RAT LIVER S-9, PHENOBARBITAL AND BETA-NAPHTHOFLAVONE, Method: PREINCUBATION); “inactive; negative” under setting [4]; “inactive; negative” (Test System: AMES SALMONELLA TYPHIMURIUM, Strain/Indicator: TA1537, Metabolic Activation: RAT LIVER S-9, PHENOBARBITAL AND BETA-NAPHTHOFLAVONE, Method: PREINCUBATION). The mutagenic call by setting is: (Test System: AMES SALMONELLA TYPHIMURIUM, Strain/Indicator: TA1538, Metabolic Activation: NONE, Method: PREINCUBATION) “inactive; negative”; (Test System: AMES SALMONELLA TYPHIMURIUM, Strain/Indicator: TA1538, Metabolic Activation: RAT LIVER S-9, PHENOBARBITAL AND BETA-NAPHTHOFLAVONE, Method: PREINCUBATION) “inactive; negative”; (Test System: E.COLI, Strain/Indicator: WP2UVRA, Metabolic Activation: NONE, Method: PREINCUBATION) “inactive; negative”; (Test System: E.COLI, Strain/Indicator: WP2UVRA, Metabolic Activation: RAT LIVER S-9, PHENOBARBITAL AND BETA-NAPHTHOFLAVONE, Method: PREINCUBATION) “inactive; negative”.

For the compound `CC(C)(C)Cl`, the mutagenic call is, setting by setting: (Test System: Mouse lymphoma, Strain/Indicator: L5178Y (tk+/tk-), Metabolic Activation: None, Method: Suspension/plate) “inactive; negative”; (Test System: Mouse lymphoma, Strain/Indicator: L5178Y (tk+/tk-), Metabolic Activation: Rat, Liver, S-9, Aroclor 1254, Method: Suspension/plate) “inactive; negative”.

As to `O=[N+]([O-])c1ccc2ccc3cccc4c3c2c1C1OC41` (centres undefined), the mutagenic call was “active; positive” (Test System: AMES SALMONELLA TYPHIMURIUM, Strain/Indicator: TA98(1,8-DNP6), Metabolic Activation: RAT, LIVER, S-9, PHENOBARBITAL AND 5,6-BENZOFLAVONE, Method: PREINCUBATION); “active; positive” (Test System: AMES SALMONELLA TYPHIMURIUM, Strain/Indicator: TA98(NR), Metabolic Activation: NONE, Method: PREINCUBATION); “active; positive” under setting [1]; “inactive; negative” (Test System: AMES SALMONELLA TYPHIMURIUM, Strain/Indicator: TA98, Metabolic Activation: RAT, LIVER, S-9, PHENOBARBITAL AND 5,6-BENZOFLAVONE, Method: PREINCUBATION); “active; positive” under setting [2]; “inactive; negative” under setting [5]. Besides, the mutagenic call by setting is: (Test System: CHINESE HAMSTER OVARY, Strain/Indicator: CHO (HGPRT)/6-THIOGUANINE, Metabolic Activation: NONE, Method: STANDARD PLATE) “active; positive”; (Test System: CHINESE HAMSTER OVARY, Strain/Indicator: CHO (HGPRT)/6-THIOGUANINE, Metabolic Activation: RAT, LIVER, S-9, AROCLOR 1254, Method: STANDARD PLATE) “active; positive”; (Test System: UDS RODENT HEPATOCYTES, Strain/Indicator: THY INCORP, Metabolic Activation: NONE, Method: AUTORADIOGRAPHY) “active; positive”.

In the case of `Cc1cccc2nc3c(ccc4ccccc43)cc12`, the mutagenic call was “active; positive” (Test System: AMES SALMONELLA TYPHIMURIUM, Strain/Indicator: TA97A, Metabolic Activation: NONE, Method: PREINCUBATION); “inactive; negative” under setting [1]; “inactive; negative” under setting [2]; “active; positive” under setting [6].

These data come from PubChem BioAssay AID1259407 (Chemical Carcinogenesis Research Information System (CCRIS), 2018).
